Assay [1] deals with Plasmepsin-2 (PM-2; Plm II) (Plasmodium falciparum (isolate HB3), UniProt P46925). In words: Plasmepsin-2 enzyme inhibition assay. Type of assay: biochemical. The conditions noted are these: Table 13; read-out: PM-2 IC50. As for the experimental part: Plasmepsin-2 (PM-2; Plm II) and Plasmepsin (PM-4; Plm IV) expression and purification was performed following the published protocols (Istvan E S and Goldberg D E, 2005). The final purified protein was activated by diluting the protein to 0.3 mg/mL in activating buffer (0.1 M citrate pH 4.5, 0.1% Tween-20, 50 mM dithiothreitol) and incubated at room temperature for 40 min, then the activated enzyme was diluted in assay buffer (50 mM sodium acetate pH 4.7, 0.01% Tween-20). The enzymatic inhibition reaction was performed in 384 well plates with a total volume of 20 μl. 10 μl of diluted PM-2 or PM-4 enzyme was added to the 384-well plate except blank wells (blank wells add 10 μL of assay buffer) and 20 nL of serials of diluted 1000× compounds were added to the wells with 520 Echo® Liquid Handling System (Labcyte Inc.). 10 μL PM-2 peptide substrate (AnaSpec, Cat#, 62050) with assay buffer was then added to final concentration of 20 μM to start the reaction. After incubation the reaction at room temperature for 60 min, the fluorescence intensity at Ex/Em=360 nm/535 nm was measured using EnVision multilabel plate reader (Perkin-Elmer). The IC50 values were obtained using Graph Pad Prism 4 and are reported in Tables 8 and 9 below as PM-2 IC50 values.

The test system of assay [2] is Plasmodium falciparum 3D7 (CQ-sensitive). Briefly: In vitro antimalarial assay (malaria SYBR Green I-based fluorescence, MSF), 3D7. Type of assay: cell-based. On the procedure: Stock solutions of each test drug were prepared in DMSO at a concentration of 20 mM. The drug solutions were serially diluted with culture medium and distributed to asynchronous parasite cultures on 96-well plates in quadruplicate in a total volume of 100 μL to achieve 0.5% parasitemia with a 2% hematocrit in a total volume of 100 pt. […] After incubation, 100 μL of lysis buffer with 0.2 μL/mL SYBR Green I was added to each well.
Antimalarial potency of compounds was determined by this technique for both Plasmodium falciparum 3D7 (CQ-sensitive) and Dd2 (multi-drug resistant) strains.

[3] abbreviates: 3D7, Table 11, read-out: Pf 3D7 IC50.
[4] abbreviates: 3D7, Table 13, read-out: 3D7 IC50.
The mark [5] stands for this setting: 3D7, Table 10, read-out: Pf3D7 IC50.

Where two headings read alike, the source gives them in different places. Where only a bound is given, the exact number is not on record here.

Plasmepsin-2 (PM-2; Plm II), sequence (P46925 125-453 limits assumed): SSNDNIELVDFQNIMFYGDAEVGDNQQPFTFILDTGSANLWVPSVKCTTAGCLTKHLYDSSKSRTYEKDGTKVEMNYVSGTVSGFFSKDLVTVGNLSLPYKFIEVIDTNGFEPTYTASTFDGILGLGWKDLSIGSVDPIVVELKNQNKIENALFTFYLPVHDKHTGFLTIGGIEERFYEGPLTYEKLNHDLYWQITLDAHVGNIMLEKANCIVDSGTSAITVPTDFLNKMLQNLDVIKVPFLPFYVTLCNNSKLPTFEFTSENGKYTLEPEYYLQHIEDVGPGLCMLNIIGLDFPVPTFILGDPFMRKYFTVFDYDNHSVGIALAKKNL

Take `COc1cccc(C2(c3ccccc3)NC(=N)N(C3CCCCC3)C2=O)c1` (centres unmarked) [Example 153, 3-cyclohexyl-2-imino-5-(3-methoxyphenyl)-5-phenylimidazolidin-4-one]: the IC50 (commonly the concentration that inhibits the measured activity by half) in assay [1] came out at 24.9 nM; in assay [2] (setting [3]), 917 nM; in assay [2] (setting [4]), 917 nM.

Regarding `N=C1NC(c2ccc(Br)cc2)(c2ccc(Br)cc2)C(=O)N1C1CCCCC1` [Example 154, 5,5-bis(4-bromophenyl)-3-cyclohexyl-2-iminoimidazolidin-4-one], the IC50 in assay [1] was 9.9 nM; in assay [2] (setting [4]) it was 1480 nM.

Turning to `N=C1NC(c2ccc(Cl)cc2)(c2ccc(Cl)cc2)C(=O)N1C1CCCCC1` [Example 155, 5,5-bis(4-chlorophenyl)-3-cyclohexyl-2-iminoimidazolidin-4-one], the IC50 in assay [1] was determined as 6 nM; in assay [2] (setting [3]), 1070 nM; in assay [2] (setting [4]) it was 1070 nM.

Take `Cc1ccc(C2(c3ccc(C)cc3)NC(=N)N(C3CCCCC3)C2=O)cc1` [Example 156, 3-cyclohexyl-2-imino-5,5-bis(4-methylphenyl)-imidazolidin-4-one]: the IC50 in assay [1] was 14 nM; in assay [2] (setting [3]) it was 1260 nM; in assay [2] (setting [4]), 1260 nM.

As to `CCOc1ccc(C2(c3ccc(OCC)cc3)NC(=N)N(C3CCCCC3)C2=O)cc1` [Example 157, 3-cyclohexyl-5,5-bis(4-ethoxyphenyl)-2-iminoimidazolidin-4-one], the results for the IC50 in assay [1], in assay [2] (setting [3]) and in assay [2] (setting [4]) were 6.87 nM, 466 nM and 466 nM, respectively.

On to `COc1ccc(C2(c3ccc(OC)cc3)NC(=N)N(C3CCCC3)C2=O)cc1` [Example 159, 3-cyclopentyl-2-imino-5,5-bis(4-methoxyphenyl)-imidazolidin-4-one], for which the IC50 in assay [1] amounted to 25.1 nM; in assay [2] (setting [5]), 611 nM; in assay [2] (setting [4]), 611 nM.

As to `COc1ccc(C2(c3ccc(OC)cc3)NC(=N)N(Cc3ccccc3)C2=O)cc1` [Example 162, 3-benzyl-2-imino-5,5-bis(4-methoxyphenyl)-imidazolidin-4-one], the IC50 was determined as 7.3 nM in assay [1], 855 nM in assay [2] (setting [5]) and 855 nM in assay [2] (setting [4]).

On to `COc1cccc(C2(c3cccc(OC)c3)NC(=N)N(C3CC3)C2=O)c1` [Example 167, 3-cyclopropyl-2-imino-5,5-bis(3-methoxyphenyl)-imidazolidin-4-one], for which the IC50 in assay [1] came out at 2830 nM; in assay [2] (setting [4]), 9320 nM.

On to `COc1cccc(C2(c3cccc(OC)c3)NC(=N)N(C3CCCC3)C2=O)c1` [Example 168, 3-cyclopentyl-2-imino-5,5-bis(3-methoxyphenyl)-imidazolidin-4-one], for which the IC50 is 110 nM in assay [1] and 1090 nM in assay [2] (setting [4]).

Regarding `COc1ccc(C2(c3cccc(-c4ccncc4)c3)NC(=N)N(C3CCCCC3)C2=O)cc1` (centres unmarked) [Example 172, 3-cyclohexyl-2-imino-5-(4-methoxyphenyl)-5-[3-(pyridin-4-yl)phenyl]-imidazolidin-4-one], the IC50 in assay [1] stood at 9.64 nM; in assay [2] (setting [4]), 533 nM.

For the molecule `COc1ccc(C2(c3ccc(OC)c(OC)c3)NC(=N)N(C3CCCCC3)C2=O)cc1OC` [Example 173, 3-cyclohexyl-5,5-bis(3,4-dimethoxy-phenyl)-2-imino-imidazolidin-4-one], the figures for the IC50 in assay [1] and in assay [2] (setting [4]) were 54.7 nM and 614 nM, respectively.

For `COc1ccc(C2(c3cccc(-c4ccccc4)c3)NC(=N)N(C3CCCCC3)C2=O)cc1` (centres unmarked) [Example 177, 3-cyclohexyl-2-imino-5-(4-methoxyphenyl)-5-(3-phenylphenyl)-imidazolidin-4-one], the IC50 in assay [1] was 11.7 nM; in assay [2] (setting [3]) it was 1490 nM; in assay [2] (setting [4]) it was 1490 nM.

As to `N=C1NC(c2ccccc2)(c2ccccc2)C(=O)N1C1CCOCC1` [Example 198, 2-imino-3-(oxan-4-yl)-5,5-diphenyl-imidazolidin-4-one], the values for the IC50 in assay [1] and in assay [2] (setting [4]) were 118 nM and more than 2500 nM, respectively.

As for `N=C1NC(c2ccc(OC(F)(F)F)cc2)(c2ccc(OC(F)(F)F)cc2)C(=O)N1C1CCCCC1` [Example 201, 3-cyclohexyl-2-imino-5,5-bis[4-(trifluoromethoxy)-phenyl]imidazolidin-4-one], the IC50 in assay [1] came to 55.1 nM; in assay [2] (setting [3]) it was 2200 nM; in assay [2] (setting [4]) it was 2200 nM.

As for `N=C1NC(c2ccccc2Cl)(c2ccccc2Cl)C(=O)N1C1CCCCC1` [Example 202, 5,5-bis(2-chlorophenyl)-3-cyclohexyl-2-iminoimidazolidin-4-one], the IC50 in assay [1] worked out at 6750 nM; in assay [2] (setting [4]), 349 nM.

As for `COc1ccc(C2(c3ccc(OC)cc3)NC(=N)N(Cc3ccncc3)C2=O)cc1` [Example 203, 2-imino-5,5-bis(4-methoxyphenyl)-3-(pyridin-4-ylmethyl)-imidazolidin-4-one], the results for the IC50 in assay [1] and in assay [2] (setting [4]) were 14.9 nM and 1130 nM, respectively.

Regarding `COc1ccc(C2(c3ccc(OC)cc3)NC(=N)N(C3CCC3)C2=O)cc1` [Example 204, 3-cyclobutyl-2-imino-5,5-bis(4-methoxyphenyl)-imidazolidin-4-one], the figures for the IC50 in assay [1], in assay [2] (setting [5]) and in assay [2] (setting [4]) were 67.4 nM, 722 nM and 722 nM, respectively.

`COc1ccc(C2(c3cccc(-c4ccccn4)c3)NC(=N)N(C3CCCCC3)C2=O)cc1` (centres unmarked) [Example 210, 3-cyclohexyl-2-imino-5-(4-methoxyphenyl)-5-[3-(pyridin-2-yl)-phenyl]imidazolidin-4-one]: the IC50 in assay [1] is 5.47 nM; in assay [2] (setting [3]), 1810 nM; in assay [2] (setting [4]) it was 1810 nM.

Regarding `N=C1NC(c2ccccc2)(c2cccc(-c3ccncc3)c2)C(=O)N1C1CCCCC1` (centres unmarked) [Example 211, 3-cyclohexyl-2-imino-5-phenyl-5-[3-(pyridin-4-yl)phenyl]-imidazolidin-4-one], the values for the IC50 in assay [1] and in assay [2] (setting [4]) were 14.1 nM and 1030 nM, respectively.

As to `N=C1NC(c2ccccc2)(c2cccc(-c3ccccc3)c2)C(=O)N1C1CCCCC1` (centres unmarked) [Example 212, 3-cyclohexyl-2-imino-5-phenyl-5-(3-phenylphenyl)-imidazolidin-4-one], the IC50 in assay [1] worked out at 12.3 nM; in assay [2] (setting [4]), 1710 nM.

Turning to `COc1cccc(C2(c3cccc(-c4cccnc4)c3)NC(=N)N(C3CCCCC3)C2=O)c1` (centres unmarked) [Example 214, 3-cyclohexyl-2-imino-5-(3-methoxyphenyl)-5-[3-(pyridin-3-yl)phenyl]-imidazolidin-4-one], the results for the concentration for half-maximal inhibition (IC50) in assay [1], in assay [2] (setting [3]) and in assay [2] (setting [4]) were 12 nM, 787 nM and 787 nM, respectively.

With `COc1ccc(C2(c3ccc(OC)cc3)NC(=N)N(Cc3cccnc3)C2=O)cc1` [Example 219, 2-imino-5,5-bis(4-methoxyphenyl)-3-(pyridin-3-ylmethyl)-imidazolidin-4-one], the IC50 was 9.62 nM in assay [1] and 582 nM in assay [2] (setting [4]).

Take `COc1ccc(C2(c3ccc(OC)cc3)NC(=N)N(C3CCCCCC3)C2=O)cc1` [Example 220, 3-cycloheptyl-2-imino-5,5-bis(4-methoxyphenyl)-imidazolidin-4-one]: the IC50 in assay [1] was 2.37 nM; in assay [2] (setting [5]), 427 nM; in assay [2] (setting [4]), 427 nM.

In the case of `N=C1NC(c2ccccc2)(c2cccc(OCc3ccccc3)c2)C(=O)N1C1CCCCC1` (centres unmarked) [Example 228, 5-[3-(benzyloxy)-phenyl]-3-cyclohexyl-2-imino-5-phenylimidazolidin-4-one], the IC50 in assay [1] is 2.89 nM; in assay [2] (setting [3]) it was 641 nM; in assay [2] (setting [4]), 641 nM.

`COc1ccc(C2(c3ccc(OC)cc3)NC(=N)N(Cc3ccccc3OC)C2=O)cc1` [Example 248, 2-imino-5,5-bis(4-methoxyphenyl)-3-[(2-methoxyphenyl)-methyl]imidazolidin-4-one]: the IC50 in assay [1] worked out at 28 nM; in assay [2] (setting [4]), 294 nM.

In the case of `COc1ccc(C2(c3ccc(OC)cc3)NC(=N)N(CC(C)(C)C)C2=O)cc1` [Example 252, 3-(2,2-dimethylpropyl)-2-imino-5,5-bis(4-methoxyphenyl)-imidazolidin-4-one], the values for the IC50 in assay [1] and in assay [2] (setting [4]) were 5.28 nM and 266 nM, respectively.

In the case of `COc1ccc(C2(c3ccc(OC)cc3)NC(=N)N(CC3CCCO3)C2=O)cc1` (centres unmarked) [Example 274, 2-imino-5,5-bis(4-methoxyphenyl)-3-(oxolan-2-ylmethyl)-imidazolidin-4-one], the IC50 was 11.4 nM in assay [1] and 633 nM in assay [2] (setting [4]).

Turning to `COc1ccc(C2(c3ccc(OC)cc3)NC(=N)N(Cc3cccc(C)c3C)C2=O)cc1` [Example 277, 3-[(2,3-dimethyl-phenyl)methyl]-2-imino-5,5-bis(4-methoxyphenyl)-imidazolidin-4-one], the IC50 in assay [1] was 4.39 nM; in assay [2] (setting [4]), 1570 nM.

Consider `COc1ccc(C2(c3ccc(OC)cc3)NC(=N)N(Cc3c(C)cccc3C)C2=O)cc1` [Example 278, 3-[(2,6-dimethyl-phenyl)methyl]-2-imino-5,5-bis(4-methoxyphenyl)-imidazolidin-4-one], for which the half-inhibitory concentration (IC50) was determined as 2.76 nM in assay [1] and 1040 nM in assay [2] (setting [4]).

The values are drawn from US9353089B2, “Compositions and methods for the treatment of malaria” (Saint Louis University, priority 2013, dated 2016).
